In patent publication US9763994B2, “Composition for promoting wound healing” (INDUSTRY-ACADEMIC COOPERATION FOUNDATION, YONSEI UNIVERSITY, priority 2014, dated 2017):

Experiments:
[1] = system: acute wound in a mouse model; assay: Mouse acute wound healing model (wound closure, H&E, immunohistochemical staining); format: in vivo, C3H mouse; details: for re-epithelialization of the acute wound (H&E staining): C3H mouse wound
Experimental: (A) In order to confirm the wound healing promoting effect of the peptide synthesized in Example 1, hair was removed the back of a 7-week-old C3H mouse and a 1.5 cm×1.5 cm sized wound was made. For a control group, 10 μL of a vehicle (50% ethanol, 20% propylene glycol, 30% water) was applied once a day for a period of 12 days. For test groups, 10 μL of the peptide or valproic acid (VPA) dissolved in the vehicle at concentrations of 100 μM and 500 mM, respectively, was applied. The skin tissue of the experimental mouse was fixed in 4% paraformaldehyde, embedded in paraffin and sliced with a thickness of 4 μm. The sliced tissue was deparaffinized, rehydrated and then stained with hematoxylin (violet) and eosin (pink) for observation of histological structure. For immunohistochemical staining, the skin tissue slice was deparaffinized, rehydrated and then incubated with 10 mM sodium citrate buffer at 121° C. for 15 minutes to recover antigenicity. The slice was blocked with albumin to prevent nonspecific antigen-antibody reactions and then antigen-antibody reactions were induced by treating with β-catenin (1:100), keratin 14 (1:1000) and collagen I (1:500) antibodies used as wound healing markers. Subsequently, after inducing antigen-antibody reactions by treating the slice with fluorescence-labeled secondary antibodies that can recognize the antibodies as antigens, the result was observed using a fluorescence microscope.
(B) In order to compare the wound healing promoting effect of the synthesized peptide with that of the existing drug, 10 μL of a vehicle (50% ethanol, 20% propylene glycol, 30% water), 100 μM PTD-DBM or 1.5 μM fibronectin was applied on a 1.5 cm×1.5 cm sized wound of a 7-week-old C3H mouse once a day for a period of 12 days.

[2] = system: β-catenin, keratin 14, α-SMA, collagen I; assay: Western blotting of mouse wound tissue; format: in vivo, C3H mouse; details: wound tissue of Test Example 2; versus control; FIG. 3
Experimental: The wound tissue used in Test Example 2 was lysed with RIPA buffer and proteins were isolated on 10% SDS polyacrylamide gel and then transferred onto a membrane. The membrane was blocked using 5% nonfat dry skim milk and then incubated with β-catenin (1:1000), α-SMA (1:1000), keratin 14 (1:1000) and collagen I (1:2000) antibodies. After inducing antigen-antibody reactions by adding enzyme-conjugated secondary antibodies that can recognize the antibodies as antigens, the result was observed using a LAS image analyzer.

[3] = system: collagen; assay: Hydroxproline assay of mouse acute wound tissue; format: in vivo, C3H mouse; details: wound tissue of Test Example 2; absorbance at 550 nm; FIG. 4B
Experimental: (B) The tissue used in Test Example 2 was dried in an incubator at 60° C. and then hydrolyzed at 110° C. with 6 N HCl. After adding chloramine T and Ehrlich's reagent to the hydrolyzed tissue, absorbance was measured at 550 nm using the FLUOstar OPTIMA luminometer.

[4] = system: collagen; assay: Collagen staining of mouse acute wound tissue (Masson's trichrome, picrosirius red, van Gieson); format: in vivo, C3H mouse; details: wound tissue of Test Example 2; FIG. 4A
Experimental: (A) The mouse tissue used in Test Example 2 was fixed in 4% paraformaldehyde, embedded in paraffin and sliced with a thickness of 4 μm. The sliced tissue was deparaffinized, rehydrated and then subjected to van Gieson staining, Masson's trichrome staining and picrosirius red staining in order to evaluate the degree of collagen synthesis. Van Gieson staining was conducted by immersing the slide in Weigert's solution for 10 minutes and then in picro fuchsin solution for 2 minutes. Masson's trichrome staining was conducted by immersing the slide in Weigert's iron hematoxylin solution for 10 minutes and then in Biebrich scarlet/acid fuchsin and aniline blue for 5 minutes, respectively. Picrosirius red staining was conducted by immersing the slide in Weigert's solution for 8 minutes and then in picrosirius red for 1 hour.

[5] = system: fibroblasts; assay: Immunocytochemical staining of fibroblasts (peptide infiltration, β-catenin); format: cell-based; details: FIG. 1
Experimental: (§1) For immunocytochemical staining, keratinocytes or fibroblasts were cultured on a 24-well plate and fixed in 4% paraformaldehyde for 15 minutes. After treating with 0.1% Triton X-100 for 15 minutes so that antibodies can permeate well and blocking with albumin so as to prevent nonspecific antigen-antibody reactions, antigen-antibody reactions were induced by treating with β-catenin antibodies. Then, after inducing antigen-antibody reactions by treating with fluorescence-labeled secondary antibodies that can recognize the antibodies as antigens, the result was observed under a fluorescence microscope.

[6] = system: keratinocytes; assay: Immunocytochemical staining of keratinocytes (peptide infiltration, β-catenin); format: cell-based; details: FIG. 1
Experimental: as §1

[7] = 10 μL topical once a day for 12 days, peptide 100 μM, VPA 500 mM

| Compound | re-epithelialization of the acute wound (H&E staining) [1, 7] | wound healing markers β-catenin, keratin 14, α-SMA or collagen I (western blotting) [2] | collagen in acute wound tissue (hydroxproline assay) [3] | collagen in acute wound tissue (Masson's trichrome, picrosirius red and van Gieson staining) [4] | β-catenin [5] | wound healing effect compared with fibronectin ([1]; 100 μM PTD-DBM vs 1.5 μM fibronectin, 10 μL once a day for 12 days, C3H mouse, FIG. 2B) | healing of acute wound ([1]; 1.5 cm×1.5 cm wound, 7-week-old C3H mouse, 10 μL topical once a day for 12 days, peptide 100 μM, VPA 500 mM, FIGS. 2A and 2B) | β-catenin [6] |
| --- | --- | --- | --- | --- | --- | --- | --- | --- |
| CCCC(CCC)C(=O)O [VPA, valproic acid, reference compound] | quick re-epithelialization | increased as compared to the control | increased collagen | increased collagen | – | – | – | – |
| RRRRRRRRGGGGRKTGHQICKFRKCK-(FITC) [PTD-DBM] | quick re-epithelialization | increased as compared to the control | increased collagen | increased collagen | increased β-catenin in a concentration-dependent manner | excellent when compared with that of fibronectin | could quickly heal the acute wound | increased β-catenin in a concentration-dependent manner |
